In the supplement of paper PMC10307832:

Key:
Assay in all cases: relative viability (nuclei count vs DMSO), 5 days (fraction); higher = more cells survive
[1] = system: PC-3 [JPC-3]
How it was run: (§1)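 Lung cancer cell lines in 1536-well plates got either a single drug or a fixed anchor-drug dose together with five library-drug doses (not always all listed) in √10 steps, by pin tool, on the day after seeding. Nuclei were counted after 5 days, and relative viability is the treated-to-vehicle ratio of nuclei counts. Values are medians of duplicate plates.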

[2] = system: BEN
How it was run: as §1

[3] = system: COR-L 105
How it was run: as §1

[4] = system: NCI-H2170
How it was run: as §1

[5] = system: SW 1573
How it was run: as §1

[6] = system: LU99A
How it was run: as §1

[7] = system: H3255
How it was run: as §1

[8] = system: NCI-H1975
How it was run: as §1

[9] = system: NCI-H1437
How it was run: as §1

[10] = system: NCI-H2087
How it was run: as §1

[11] = system: EKVX
How it was run: as §1

[12] = system: NCI-H2085
How it was run: as §1

[13] = system: EPLC-272H
How it was run: as §1

[14] = system: NCI-H2342
How it was run: as §1

[15] = system: 201T
How it was run: as §1

[16] = system: NCI-H1666
How it was run: as §1

[17] = system: LCLC-97TM1
How it was run: as §1

[18] = system: HCC-827
How it was run: as §1

[19] = system: NCI-H650
How it was run: as §1

[20] = system: NCI-H647
How it was run: as §1

[21] = system: HCC-44
How it was run: as §1

[22] = system: LOU-NH91
How it was run: as §1

Compound: Nc1ccn([C@@H]2O[C@H](CO)[C@@H](O)[C@@H]2O)c(=O)n1 [Cytarabine] + N=C(N)NC(=N)NCCc1ccccc1 [Phenformin] (partner 250 µM)
- relative viability ([1]; first compound 0.005 µM): 0.493
- relative viability ([1]; first compound 0.01581 µM): 0.468
- relative viability ([1]; first compound 0.05 µM): 0.418
- relative viability ([1]; first compound 0.1581 µM): 0.346
- relative viability ([1]; first compound 0.5 µM): 0.358
- relative viability ([2]; first compound 0.005 µM): 0.193
- relative viability ([2]; first compound 0.01581 µM): 0.22
- relative viability ([2]; first compound 0.05 µM): 0.244
- relative viability ([2]; first compound 0.1581 µM): 0.195
- relative viability ([2]; first compound 0.5 µM): 0.212
- relative viability ([3]; first compound 0.005 µM): 0.428
- relative viability ([3]; first compound 0.01581 µM): 0.504
- relative viability ([3]; first compound 0.05 µM): 0.43
- relative viability ([3]; first compound 0.1581 µM): 0.29
- relative viability ([3]; first compound 0.5 µM): 0.259
- relative viability ([4]; first compound 0.005 µM): 0.328
- relative viability ([4]; first compound 0.01581 µM): 0.321
- relative viability ([4]; first compound 0.05 µM): 0.25
- relative viability ([4]; first compound 0.1581 µM): 0.218
- relative viability ([4]; first compound 0.5 µM): 0.205
- relative viability ([5]; first compound 0.005 µM): 0.342
- relative viability ([5]; first compound 0.01581 µM): 0.287
- relative viability ([5]; first compound 0.05 µM): 0.218
- relative viability ([5]; first compound 0.1581 µM): 0.131
- relative viability ([5]; first compound 0.5 µM): 0.109
- relative viability ([6]; first compound 0.005 µM): 1.07
- relative viability ([6]; first compound 0.01581 µM): 0.747
- relative viability ([6]; first compound 0.05 µM): 0.871
- relative viability ([6]; first compound 0.1581 µM): 0.775
- relative viability ([6]; first compound 0.5 µM): 0.808
- relative viability ([7]; first compound 0.005 µM): 0.301
- relative viability ([7]; first compound 0.01581 µM): 0.336
- relative viability ([7]; first compound 0.05 µM): 0.296
- relative viability ([7]; first compound 0.1581 µM): 0.25
- relative viability ([7]; first compound 0.5 µM): 0.273
- relative viability ([8]; first compound 0.005 µM): 0.331
- relative viability ([8]; first compound 0.01581 µM): 0.344
- relative viability ([8]; first compound 0.05 µM): 0.31
- relative viability ([8]; first compound 0.1581 µM): 0.193
- relative viability ([8]; first compound 0.5 µM): 0.177
- relative viability ([9]; first compound 0.005 µM): 0.199
- relative viability ([9]; first compound 0.01581 µM): 0.183
- relative viability ([9]; first compound 0.05 µM): 0.17
- relative viability ([9]; first compound 0.5 µM): 0.105
- relative viability ([10]; first compound 0.005 µM): 0.384
- relative viability ([10]; first compound 0.01581 µM): 0.308
- relative viability ([10]; first compound 0.05 µM): 0.373
- relative viability ([10]; first compound 0.1581 µM): 0.229
- relative viability ([10]; first compound 0.5 µM): 0.131
- relative viability ([11]; first compound 0.005 µM): 0.217
- relative viability ([11]; first compound 0.01581 µM): 0.192
- relative viability ([11]; first compound 0.05 µM): 0.172
- relative viability ([11]; first compound 0.1581 µM): 0.211
- relative viability ([11]; first compound 0.5 µM): 0.207
- relative viability ([12]; first compound 0.005 µM): 0.746
- relative viability ([12]; first compound 0.01581 µM): 0.67
- relative viability ([12]; first compound 0.05 µM): 0.757
- relative viability ([12]; first compound 0.1581 µM): 0.413
- relative viability ([12]; first compound 0.5 µM): 0.362
- relative viability ([13]; first compound 0.005 µM): 0.249
- relative viability ([13]; first compound 0.01581 µM): 0.277
- relative viability ([13]; first compound 0.05 µM): 0.26
- relative viability ([13]; first compound 0.1581 µM): 0.147
- relative viability ([13]; first compound 0.5 µM): 0.214
- relative viability ([14]; first compound 0.005 µM): 0.543
- relative viability ([14]; first compound 0.01581 µM): 0.57
- relative viability ([14]; first compound 0.05 µM): 0.482
- relative viability ([14]; first compound 0.1581 µM): 0.449
- relative viability ([14]; first compound 0.5 µM): 0.404
- relative viability ([15]; first compound 0.005 µM): 0.369
- relative viability ([15]; first compound 0.01581 µM): 0.432
- relative viability ([15]; first compound 0.05 µM): 0.428
- relative viability ([15]; first compound 0.1581 µM): 0.352
- relative viability ([15]; first compound 0.5 µM): 0.356
- relative viability ([16]; first compound 0.005 µM): 0.545
- relative viability ([16]; first compound 0.01581 µM): 0.669
- relative viability ([16]; first compound 0.05 µM): 0.466
- relative viability ([16]; first compound 0.1581 µM): 0.401
- relative viability ([16]; first compound 0.5 µM): 0.396
- relative viability ([17]; first compound 0.005 µM): 0.426
- relative viability ([17]; first compound 0.01581 µM): 0.34
- relative viability ([17]; first compound 0.05 µM): 0.354
- relative viability ([17]; first compound 0.1581 µM): 0.201
- relative viability ([17]; first compound 0.5 µM): 0.168
- relative viability ([18]; first compound 0.005 µM): 0.321
- relative viability ([18]; first compound 0.01581 µM): 0.258
- relative viability ([18]; first compound 0.05 µM): 0.195
- relative viability ([18]; first compound 0.1581 µM): 0.141
- relative viability ([18]; first compound 0.5 µM): 0.158
- relative viability ([19]; first compound 0.005 µM): 0.448
- relative viability ([19]; first compound 0.01581 µM): 0.33
- relative viability ([19]; first compound 0.05 µM): 0.185
- relative viability ([19]; first compound 0.1581 µM): 0.194
- relative viability ([19]; first compound 0.5 µM): 0.187
- relative viability ([20]; first compound 0.005 µM): 0.181
- relative viability ([20]; first compound 0.01581 µM): 0.204
- relative viability ([20]; first compound 0.05 µM): 0.193
- relative viability ([20]; first compound 0.1581 µM): 0.0662
- relative viability ([20]; first compound 0.5 µM): 0.0608
- relative viability ([21]; first compound 0.005 µM): 0.161
- relative viability ([21]; first compound 0.01581 µM): 0.15
- relative viability ([21]; first compound 0.05 µM): 0.142
- relative viability ([21]; first compound 0.1581 µM): 0.113
- relative viability ([21]; first compound 0.5 µM): 0.108
- relative viability ([22]; first compound 0.005 µM): 0.732
- relative viability ([22]; first compound 0.01581 µM): 0.75
- relative viability ([22]; first compound 0.05 µM): 0.467
- relative viability ([22]; first compound 0.1581 µM): 0.413
- relative viability ([22]; first compound 0.5 µM): 0.508
